Measured values as given in patent US10934278B2, “Compounds” (Autifony Therapeutics Limited, priority 2016, dated 2021).
Each block holds one compound with its values, some of them ahead of it.

Key:
human Kv3.1 channels = biological target: T1, human Kv3.1 channels (Homo sapiens, UniProt P48547); assay: hKv3.1 IonWorks Quattro whole-cell current potentiation assay; type: cell-based; conditions: for % current increase @ conc 1.56 μM: Kv3.1, 1.56 μM; for % current increase @ conc 3.12 μM: Kv3.1, 3.12 μM; for % current increase @ conc 12.5 μM: Kv3.1, 12.5 μM; for EC50: hKv3.1, -15 mV voltage step, read-out: pEC50 (Kv3.1) (converted)
T1 construct: expressed in transfected cells; host or cells: CHO/Gam/E1A-clone22 (CGE22) cells, CHO-K1-derived, transiently transduced with BacMam (pFBM/human Kv3.1, MOI 50)
T1 sequence (P48547 1-511): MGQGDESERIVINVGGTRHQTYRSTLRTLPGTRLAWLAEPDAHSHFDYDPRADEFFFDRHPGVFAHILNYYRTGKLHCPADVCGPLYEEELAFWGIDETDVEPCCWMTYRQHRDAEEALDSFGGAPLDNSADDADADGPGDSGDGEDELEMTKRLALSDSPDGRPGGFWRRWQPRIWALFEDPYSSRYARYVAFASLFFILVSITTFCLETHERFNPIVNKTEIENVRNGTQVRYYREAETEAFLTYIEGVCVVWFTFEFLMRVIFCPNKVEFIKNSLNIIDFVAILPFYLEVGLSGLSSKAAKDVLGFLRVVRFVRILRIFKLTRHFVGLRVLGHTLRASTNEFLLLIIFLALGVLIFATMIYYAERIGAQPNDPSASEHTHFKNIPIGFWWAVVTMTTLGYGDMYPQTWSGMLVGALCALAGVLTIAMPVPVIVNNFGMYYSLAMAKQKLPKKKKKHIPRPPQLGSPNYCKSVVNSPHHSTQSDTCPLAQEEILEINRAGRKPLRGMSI
From the text: To assess compound effects on human Kv3.1 channels (hKv3.1), CHO/Gam/E1A-clone22 alias CGE22 cells were transduced using a hKv3.1 BacMam reagent. This cell line was designed to be an improved CHO-K1-based host for enhanced recombinant protein expression as compared to wild type CHO-K1. The cell line was generated following the transduction of CHO-K1 cells with a BacMam virus expressing the Adenovirus-Gam1 protein and selection with Geneticin-G418, to generate a stable cell line, CHO/Gam-A3. CHO/Gam-A3 cells were transfected with pCDNA3-E1A-Hygro, followed by hygromycin-B selection and FACS sorting to obtain single-cell clones. BacMam-Luciferase and BacMam-GFP viruses were then used in transient transduction studies to select the clone based on highest BacMam transduction and recombinant protein expression. CGE22 cells were cultured in the same medium used for the hKv3.2 CHO-K1 stable cell line with the addition of 300 ug/ml hygromycin-B and 300 ug/ml G418. All other conditions were identical to those for hKv3.2 CHO-K1 cells. The day before an experiment 10 million CGE22 cells were plated in a T175 culture flask and the hKv3.1 BacMam reagent (pFBM/human Kv3.1) was added (MOI of 50). Transduced cells were used 24 h later.
Cell Preparation for Ion Works Quattro™ Experiments The day of the experiment, cells were removed from the incubator and the culture medium removed. Cells were washed with 5 ml of Dulbecco's PBS (DPBS) calcium and magnesium free and detached by the addition of 3 ml Versene (Invitrogen, Italy) followed by a brief incubation at 37° C. for 5 minutes. The flask was tapped to dislodge cells and 10 ml of DPBS containing calcium and magnesium was added to prepare a cell suspension. The cell suspension was then placed into a 15 ml centrifuge tube and centrifuged for 2 min at 1200 rpm. After centrifugation, the supernatant was removed and the cell pellet re-suspended in 4 ml of DPBS containing calcium and magnesium using a 5 ml pipette to break up the pellet. Cell suspension volume was then corrected to give a cell concentration for the assay of approximately 3 million cells per ml.
Experiments were conducted at r.t. using lonWorks Quattro™ planar array electrophysiology technology (Molecular Devices Corp.) with PatchPlate™ PPC. Stimulation protocols and data acquisition were carried out using a microcomputer (Dell Pentium 4). Planar electrode hole resistances (Rp) were determined by applying a 10 mV voltage step across each well. These measurements were performed before cell addition. After cell addition and seal formation, a seal test was performed by applying a voltage step from −80 mV to −70 mV for 160 ms. Following this, amphotericin-B solution was added to the intracellular face of the electrode to achieve intracellular access. Cells were held at −70 mV. Leak subtraction was conducted in all experiments by applying 50 ms hyperpolarizing (10 mV) prepulses to evoke leak currents followed by a 20 ms period at the holding potential before test pulses. For hKv3.2 and hKv3.1 assays, from the holding potential of −70 mV, a first test pulse to −15 mV was applied for 100 ms and following a further 100 ms at −70 mV, a second pulse to 40 mV was applied for 50 ms. Cells were then maintained for a further 100 ms at −100 mV and then a voltage ramp from −100 mV to 40 mV was applied over 200 ms. For hKv3.3 assays, from the holding potential of −70 mV, a first test pulse to 0 mV was applied for 500 ms and following a further 100 ms at −70 mV, a second pulse to 40 mV was applied for 200 ms. These longer test pulses were used to study inactivation of hKv3.3 channels. Test pulses protocol may be performed in the absence (pre-read) and presence (post-read) of the test compound. Pre- and post-reads may be separated by the compound addition followed by a 3 minute incubation.
The intracellular solution contained the following (in mM): K-gluconate 100, KCl 54, MgCl2 3.2, HEPES 5, adjusted to pH 7.3 with KOH. […]

[1] = tested on: rat model of neuropathic pain; assay: Neuropathic pain model, partial ligation of the sciatic nerve, paw withdrawal thresholds; type: in vivo; conditions: for Peak reversal of mechanical sensitivity: 3 h post-dose
Procedure: (§1) Subjects comprised male, Wistar Hanover rats, 6 animals per group (225±2 g).
(§2) Vehicle (12% Captisol®; 0.5% w/v HPMC and 0.1% w/v Tween-80; 5 ml/kg via the intraperitoneal route) was prepared using autoclaved deionized water not more than one week prior to use.
(§3) The control for the neuropathic pain model was lamotrigine, administered at 30 mg/kg via oral delivery. The control for the inflammatory pain model was diclofenac, administered at 30 mg/kg via oral delivery. Statistical analysis was performed using one-way ANOVA, and comparisons were performed with time-matched vehicle group using Tukey's HSD test wherein *p<0.05, **p<0.01, ***p<0.001.
Neuropathic pain was induced by partial ligation of the sciatic nerve. Briefly, the rats were anaesthetised (isoflurane/O2 inhalation), the left sciatic nerve exposed at mid-thigh level through a small incision and ⅓ to ½ of the nerve thickness tightly ligated within a 7.0 silk suture. The wound was closed with surgical glue. Animals were allowed to recover and tested 12-15 days following surgery.
Withdrawal thresholds were measured on both the ipsilateral (ligated) and contralateral (non-ligated) paws, prior to (predose) and then up to 24 h following drug or vehicle administration.
Pre-dose behavioural measurements were obtained by measuring paw withdrawals 14 days following nerve ligation; before the initiation of drug treatment. Following treatment, further readings were taken at 1, 3, 6 and 24 hour after administration.
(§4) Mechanical hyperalgesia was examined in a model of neuropathic pain by measuring paw withdrawal thresholds (PWT) to increasing mechanical force applied to the dorsal surface of the rat paw using an Analgesymeter (Ugo-Basile, Milan) equipped with a wedge-shaped probe (area 1.75 mm^2). Cut-off was set at 250 g and the end-point was taken as withdrawal of the hind paw. Both ipsilateral and contralateral paw withdrawal readings were taken.
Cold sensitivity can be assessed using a commercially available cold-plate (Ugo Basile, Milan). The cold plate is allowed to stabilize for 5 minutes at the set temperature prior to testing. Paw withdrawal latencies (PWL) are determined with the cold-plate set at 10° C. The animals are lightly restrained and each hind paw in turn placed onto the surface of the cold-plate. The end point is taken as the withdrawal of the paw and recorded as the withdrawal latency for the ipsilateral and the contralateral paw. A maximum cut-off of 30 seconds is used for each paw.
(§5) Data were expressed as withdrawal threshold (g) and percentage reversals calculated according to the following formula: […]

[2] = tested on: rat model of persistent inflammatory pain; assay: Persistent inflammatory pain model (FCA), paw withdrawal thresholds; type: in vivo
Procedure: as §1, §2, §3
Mechanical hyperalgesia was examined in a model of persistent inflammatory pain.
The hyperalgesia was induced by an intraplantar injection (25 μl) of Freund's Complete Adjuvant (FCA) into the left hind paw.
To assess the effect of the test compound, paw withdrawal thresholds were measured on both the ipsilateral (FCA-injected) and contralateral (non-injected) paws, prior to (naïve) and 24 h following FCA injection (predose), and then at 1, 3, 6 and 24 h after drug or vehicle administration.
as §4, §5

% current increase @ conc 1.56 μM (human Kv3.1 channels): 25%
% current increase @ conc 3.12 μM (human Kv3.1 channels): 60%
% current increase @ conc 12.5 μM (human Kv3.1 channels): 105%
EC50 (human Kv3.1 channels): 3.55 µM
Structure (SMILES): Cc1ccc(O[C@H]2C[C@H](N3C(=O)NC(C)(C)C3=O)C2)c2c1OCC21CC1

% current increase @ conc 1.56 μM (human Kv3.1 channels): 7%
% current increase @ conc 3.12 μM (human Kv3.1 channels): 10%
% current increase @ conc 12.5 μM (human Kv3.1 channels): 12%
EC50 (human Kv3.1 channels): > 50.1 µM
Structure (SMILES): Cc1ccc(O[C@@H]2CC[C@@H](N3C(=O)NC(C)(C)C3=O)C2)c2c1OCC21CC1 (racemic)

Structure (SMILES): Cc1ccc(Oc2ncc(N3C(=O)NC(C)(C)C3=O)cn2)c2c1OCC21CC1 [Compound X, 5,5-dimethyl-3-[2-(7-methylspiro[2H-benzofuran-3,1′-cyclopropane]-4-yl)oxypyrimidin-5-yl]imidazolidine-2,4-dione]
Peak reversal of mechanical sensitivity ([1]; 10 mg/kg i.p.): 31%
Peak reversal of mechanical sensitivity ([1]; 30 mg/kg i.p.): 73%
Peak reversal of mechanical sensitivity ([1]; 60 mg/kg i.p.): 81%
effect on mechanical sensitivity, ipsilateral paw ([1]; 10, 30, 60 mg/kg i.p.): dose-related reversal of mechanical sensitivity
changes in normal behaviour ([1]; administered acutely, neuropathic and inflammatory pain models): without causing significant changes in normal behaviour
contralateral paw withdrawal thresholds to mechanical pressure ([1]; rat, in vivo): significant increases
duration of efficacy ([1]; rat, in vivo): up to 6 h
time of maximal efficacy after dosing ([1]; rat, in vivo): 1 to 3 h
effect on cold sensitivity, ipsilateral paw ([1]; results not shown): marked, dose-related reversal of cold sensitivity
general behaviour observation ([1]; treated rats): induced flaccidity in some of the treated rats
Peak reversal of mechanical sensitivity ([2]; 10 mg/kg i.p., 3 h post-dose): 64%
Peak reversal of mechanical sensitivity ([2]; 30 mg/kg i.p., 1 h post-dose): 74%
Peak reversal of mechanical sensitivity ([2]; 60 mg/kg i.p., 1 h post-dose): 92%
reversal of mechanical sensitivity ([2]; 60 mg/kg i.p., 6 h post-dose): 45%
effect on mechanical sensitivity ([2]; 10, 30, 60 mg/kg i.p.): dose-related reversal of mechanical sensitivity
time of peak reversal post-dose ([2]; rat, in vivo): 1 to 3 h

Structure (SMILES): O=C(O)Cc1ccccc1Nc1c(Cl)cccc1Cl [diclofenac]
peak reversals in mechanical sensitivity ([2]; positive control, 30 mg/kg oral, 1 h post-dose): 64%

Structure (SMILES): Nc1nnc(-c2cccc(Cl)c2Cl)c(N)n1 [lamotrigine]
Peak reversal of mechanical sensitivity ([1]; positive control, 30 mg/kg oral): 67%
